In ChEMBL document CHEMBL3507680, “University of Dundee, Gates Library screen for HepG2 cell viability”:

Test: Human HepG2 cell viability assay in 384 well format
Type: toxicity, cell-based
Parameters: dose 125 nL, time 70.5 hour; cytotoxicity at 70.5 h: concentration not given beside the values
Settings: HepG2 cells, read-out: Inhibition

SMILES | cytotoxicity at 70.5 h [%]
CN(C)CCNC(=O)c1ccc2c(-c3nccs3)noc2c1 | -8.08
CN(C)C(C(=O)N1Cc2ccccc2C1)c1ccccc1F (stereo unspecified) | -2.59
CC(Oc1ccc(OCc2ncc(C(C)C)o2)cc1)C(N)=O (stereo unspecified) | -8.33
CC(=O)Nc1ccc(-n2ccc3nc(N4CCCC4)ncc3c2=O)cc1 | 1.42
Cc1ccc(NC(=O)C2CSCN2C(=O)c2cnccn2)cc1C (stereo unspecified) | -9.37
COc1cccc(-c2nccc(C3CCCN3C)n2)c1 (stereo unspecified) | 26.3
CCN(C)c1ncnc2c1CCN(C(=O)c1cccn1C)CC2 | 21
Cc1ccc(NS(=O)(=O)CC2=NC(=O)n3cccc3C2=O)cc1 | -36.1
Cc1cc(C)c(C(=O)N(CCO)Cc2ccccc2F)c(=O)[nH]1 | -8.86
Cc1nnc(C2CCN(c3ccccc3)CC2)o1 | -9.47
COC(=O)N1CCC(c2nnc(Cn3ccnc3)n2C)CC1 | -2.68
O=c1cc(-c2cc(O)cc(CCC3CCCCN3)c2)cc[nH]1 (stereo unspecified) | -6.48
CSc1ccc(CNc2ccccc2CN2CCC(O)CC2)cc1 | -3.71
O=C1Nc2ccccc2NC12CCN(c1cccc(C(F)(F)F)n1)CC2 | 52.4
CC1CN(C)c2ccccc2CN1C(=O)NCc1ccon1 (stereo unspecified) | -0.0778
Cc1cccc(CO[C@@H]2C[C@H]3CN(C(=O)c4cnccn4)CCN3C2)n1 | -8.15
COCCC1(CNC(=O)Nc2ccc(-n3cccn3)cc2)CCC1 | 2.32
CC(C)c1cc(NCC(O)CO)n2nccc2n1 (stereo unspecified) | -0.638
CCN(C(=O)c1cccc2c1OCO2)c1ccc(Br)cn1 | -7.06
CC(CNCc1ccc(Cl)c(Cl)c1)Oc1ccccn1 (stereo unspecified) | -1.69
CCNc1cc2c(nn1)CCN(C(=O)CC1CCCC1)C2 | -5.46
O=C(c1ccsc1)N1CCc2c(COCc3ccncc3)cncc2C1 | -9.93
CC1=Nc2c(c(O)nn2C2CCOCC2)C(c2cccnc2)S1 (stereo unspecified) | -3.81
CC(=O)Nc1ccc(Cl)c(C(=O)N(C)C(C)c2ccncn2)c1 (stereo unspecified) | -0.237

SMILES | cytotoxicity at 70.5 h [%]
CS(=O)(=O)c1ccccc1C(=O)NCC1Cc2ccccc2O1 (stereo unspecified) | -4.69
CCc1noc(CNc2nc(-c3cccnc3)nc3c2CCNCC3)n1 | -14.3
O=C(Nc1ccc(Cl)cn1)c1cncc(C2CCNCC2)n1 | -7.54
Cc1ccc(CNC(=O)NCCCO)cc1 | 19.3
COc1ncc(CN2C[C@@H]3CC[C@@](O)(c4ccc(C)cn4)[C@@H]3C2)cn1 | 2.96
Cc1cc(-c2cnc(N3CCSCC3)nc2C(C)C)on1 | -0.852
c1cncc(O[C@@H]2CC[C@H]3[C@H]2OCCN3C2CCCC2)c1 | 3.46
N#Cc1ccc(CN2CCN(C(=O)CCn3cncn3)CC2)cc1 | 6.05
O=C1N(c2cccc(F)c2)Cc2nc(=O)[nH]n21 | -7.69
COc1cc(N2CC[C@@H]3[C@@H](CC2)OCCN3CC2CC2)ncn1 | -4.1
CC1CCCN(c2nccn3c(=O)[nH]nc23)C1 (stereo unspecified) | -7.92
CC(C)N1CCC(c2ccnc3c(C(=O)N4CCOCC4)ncn23)CC1 | -5.36
CC(C)(C)c1cnc(CN2CCCS2(=O)=O)o1 | -1.12
CCCn1nnnc1CSc1nccn1CC | -0.835
CCOC(=O)C1(O)CCN(C(=O)Nc2ccc(CC)cc2)CC1 | -4.17
Cc1cc(NCC(=O)N(C)C(C)c2cccs2)c(C(N)=O)cc1F (stereo unspecified) | 1.44
CCc1cc(N[C@@H](CO)C(N)=O)n2nc(C)c(C)c2n1 | -2.72
Cc1cc(CN2CCCC2)cc(Oc2ccc3c(c2)CC(CN)O3)c1 (stereo unspecified) | -11.7
CCCn1ncc2c(C(=O)NC(C)Cn3cccn3)cc(C3CC3)nc21 (stereo unspecified) | -13.1
Cc1ccc(CNc2ccn(CCc3ccncc3)n2)s1 | 2.73
Cc1nnc2n1CCN(C(=O)c1cn(-c3ccccc3)nn1)C2 | -1.52
CN(C)C(=O)[C@@]12CCO[C@@H]1CCN(Cc1ccc3c(c1)OCO3)C2 | 1.17
NCC(CO)Cc1ccc(OC(F)(F)F)cc1 (stereo unspecified) | -5.55
c1cnc(N2CCN(Cc3nnnn3C3CC3)CC2)nc1 | -16.2

SMILES | cytotoxicity at 70.5 h [%]
COc1cc(N2CCCn3cnc(COC(C)C)c3C2)ncn1 | 13.3
Cc1c(Cl)c(C(=O)NN2CCOCC2)nn1C | -8.4
NC(=O)C1CCCN1CCCc1ccc(Cl)cc1 (stereo unspecified) | -5.15
COc1cccc(CN2CCCC2c2cccc(F)c2)c1OC (stereo unspecified) | -11.8
CCN(CC)C(=O)c1cc(Br)cc(S(=O)(=O)N2CCOCC2)c1F | -2.06
NC(=O)C1CCN(C(=O)c2cc(-n3cnnn3)ccc2Cl)CC1 | -14.1
CCn1cc(-c2nn3c(C(C)C)nnc3s2)c(C)n1 | -14.2
O=C(CNCC1(O)CCCN(Cc2cccc(F)c2F)C1=O)NC1CC1 (stereo unspecified) | -1.7
O=C(N[C@@H]1CC[C@@H](N2CCOCC2)[C@@H]1O)c1cnn2cccnc12 | 21.8
Cc1ccc(CCNC(=O)Nc2cc(C(F)(F)F)c[nH]c2=O)o1 | -4.56
COc1ccc(CN(C)c2ncc(S(N)(=O)=O)s2)c(OC)c1 | -4.13
O=C(CN1CCC(C(=O)c2cc(F)ccc2F)CC1)NC1CC1 | -12
CN1CC(=O)N(c2cccc(F)c2)CC12CCN(CC1CCOCC1)C2 (stereo unspecified) | 5.35
Cc1cccc(C(C(=O)N2CC(c3cccnc3)C2)N(C)C)c1 (stereo unspecified) | -0.966
Cc1cc(C(=O)NCc2ccc(N3CCCC(C(N)=O)C3)cc2)[nH]n1 (stereo unspecified) | -2.55
CC(C)C(C)(C#N)NC(=O)Cn1cc(-c2ccccc2)cn1 (stereo unspecified) | -5.67
CC(=O)N1CCN(C(=O)NCc2ccc(Cl)s2)CC1 | 20.2
Cc1ccc(OC2CCN(C(=O)C(C)Cn3cccn3)CC2)cc1 (stereo unspecified) | 0.0943
Cc1nn(CCO)c(C)c1CNC1CCOc2ccccc21 (stereo unspecified) | -2.7
COc1ccc(COCC(O)CNC(=O)c2cnc(C)cn2)cc1 (stereo unspecified) | -8.25
Cc1csc(NCC(=O)c2c[nH]c3ccccc23)n1 | 3.37
CC(C)n1cnnc1Cn1c(=O)ccc2ccccc21 | -2.43
COc1ccc(-n2nc(C)c(C(C)=O)c2C)cc1C(N)=O | 2.1
Cc1csc(CN2C[C@@H]3CN(S(C)(=O)=O)CCO[C@@H]3C2)n1 | 5.33

SMILES | cytotoxicity at 70.5 h [%]
O=C1CC(c2ccncc2)C2(CCN(CCO)CC2)N1 (stereo unspecified) | -10.4
Cc1cc(NCc2cc3n(n2)CCCN(S(C)(=O)=O)C3)ncn1 | -5.23
CCc1ccc(S(=O)(=O)Nc2cn(C)cc(Br)c2=O)cc1 | 7.59
CNC(=O)Cc1csc(NC(=O)C2CSCCC(=O)N2)n1 (stereo unspecified) | 14.7
COCCNC(=O)c1nnc2ccc(N3CCOCC3)cc2n1 | 23.1
CS(=O)(=O)NCc1ncn2c1CN(C(=O)C1CCCCC1)CCC2 | -4.09
CC(=O)N1CC2(CCN(C(=O)c3cccc4[nH]ccc34)CC2)C1 | -8.74
COc1ccc2c(O)c(NC(=O)NCC3CC3)cnc2c1 | 9.51
O=C(C1CCC1)N1C(CN2CCOCC2)[C@]2(O)CC[C@H]1CC2 (stereo partly specified) | 13.5
CCc1nnc(Nc2cccc(C3CCN(C(C)=O)CC3)n2)s1 | 44.9
O=C(NCc1cccc(F)c1)N1CCc2ncnc(NC3CC3)c2CC1 | 1.62
CC(C)SCc1cccc(NC(=O)NCCc2nnc[nH]2)c1 | 11.5
O=C(c1ccco1)N1CCCC2(CN(Cc3ccoc3)CCO2)C1 (stereo unspecified) | -0.421
COc1c(C2CCCN2C(=O)c2cccnc2N(C)C)c(C)nn1C (stereo unspecified) | 0.616
CCCc1nc(NCCOC)c2c(n1)c(C)nn2CC | -7.81
Cc1cc2nc(C(C)C)cc(NCCc3ccncc3)n2n1 | -13.2
COc1ccc(CC(=O)N2CCCC2c2nc(C)c(C)c(O)n2)cc1 (stereo unspecified) | -2.14
Cn1cc(C[C@H]2[C@H](O)CCN2Cc2ccc3c(c2)OCO3)cn1 | 6.92
CC1=Nc2c(c(O)nn2C(C)C)C(c2cccnc2)S1 (stereo unspecified) | 26.1
COc1ccc(-c2cn(CCSc3ncn[nH]3)nn2)cn1 | -9.67
COc1cccc2c1ccn2CCNC(=O)C1CCC1 | -13.3
CCc1c(C)n(CCOC)c2nc3ccccc3n2c1=O | 19.8
COc1ccc(-c2cnc3n2CCNC32CCN(S(C)(=O)=O)CC2)cc1 | -6.19
O=C(c1ccc(OCC2CC2)cc1)N1CCOCC1c1ncon1 (stereo unspecified) | 1.72

SMILES | cytotoxicity at 70.5 h [%]
Cc1cnn(CC2CCCN2C(=O)c2ccc3nnc(C)n3c2)c1 (stereo unspecified) | -1.07
CCS(=O)(=O)CC(=O)NC(c1ccc(F)cc1)C1CCCC1 (stereo unspecified) | 1.5
CCOCc1cnc2n1CCN(C(=O)c1ccoc1C)C2C (stereo unspecified) | 9.87
CCCc1cc(NC(=O)c2cc(N3CCNC3=O)c(F)cc2F)n[nH]1 | 1.56
O=C(Cn1cccnc1=O)NCC1Cc2ccccc2O1 (stereo unspecified) | -9.82
CSc1ccccc1C(C(=O)O)N1CCN(Cc2ccccn2)CC1 (stereo unspecified) | 17
Cc1cc(C)c(Cn2cncn2)cc1CN1CCC(CN)C1 (stereo unspecified) | -0.164
COCCc1ncc(-c2c(C#N)c(N)nc3c2CCc2[nH]ccc2-3)cn1 | -3.18
Cc1ccc(C2(CN3CCN(Cc4cncn4C)CC3)CC2)cc1 | 12.6
c1cncc(CNc2ccccc2-c2nn[nH]n2)c1 | -5.95
COc1cccc2c1OCC(C(=O)NCc1c(C)noc1C)C2 (stereo unspecified) | -7.18
O=C(NC1CCCCC1)N1CCc2onc(COc3cccnc3)c2C1 | -6.55
CO[C@H]1CN(C(=O)c2ccc3oc(C)cc3c2)C[C@@]12CCCO2 | -3.4
CC1CN(CCOc2ccccc2C#N)CCN1Cc1nccn1C (stereo unspecified) | -12.6
Cc1nc(C)n(CC2CCCN2CCOc2cccc(F)c2)n1 (stereo unspecified) | -9.85
CN(C)C(=O)CN1CCc2ncnc(C3CC3)c2CC1 | 2.76
CN1CC(c2ccccc2)CC2(CCN(C(=O)c3cccnn3)CC2)C1 (stereo unspecified) | -4.99
COc1ccc(CCN2CCOC(Cn3nc(C)nc3C)C2)cc1 (stereo unspecified) | -5.86
Cn1ncc2c1C(COCC1CC1)CN(C(=O)c1ccoc1)C2 (stereo unspecified) | 14.1
COc1ccc(CN2CCn3c(CO)nnc3C2)cc1CN1CCCC1 | 2.95
